PubChem BioAssay AID2060513 (Molecular Pharmacology Branch, DTP, NCI, 2025)

Tested on: 299254-011-R-J1-PDC complex spheroids viability
Assay: Anticancer human tumor 299254-011-R-J1-PDC patient-derived melanoma cell line growth inhibition [GQUAD]
Details: for IC50: curve of first compound; for viability, T/C: stronger effect = lower value
In short: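 Tumor cells were grown as complex spheroids with HUVEC endothelial cells and mesenchymal stem cells as stroma. G-quadruplex stabilizers were combined with targeted agents over half-log dilutions from near the clinical Cmax, or from 10 microM.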

[1] = second compound 0.0316 µM, first compound 0.0316 µM
[2] = second compound 0.0316 µM, first compound 0.1 µM
[3] = second compound 0.0316 µM, first compound 0.316 µM
[4] = second compound 0.0316 µM, first compound 1 µM
[5] = second compound 0.0316 µM, first compound 3.16 µM
[6] = second compound 0.0316 µM, first compound 10 µM
[7] = second compound 0.1 µM, first compound 0.0316 µM
[8] = second compound 0.1 µM, first compound 0.1 µM
[9] = second compound 0.1 µM, first compound 0.316 µM
[10] = second compound 0.1 µM, first compound 1 µM
[11] = second compound 0.1 µM, first compound 3.16 µM
[12] = second compound 0.1 µM, first compound 10 µM
[13] = second compound 0.316 µM, first compound 0.0316 µM
[14] = second compound 0.316 µM, first compound 0.1 µM
[15] = second compound 0.316 µM, first compound 0.316 µM
[16] = second compound 0.316 µM, first compound 1 µM
[17] = second compound 0.316 µM, first compound 3.16 µM
[18] = second compound 0.316 µM, first compound 10 µM
[19] = second compound 1 µM, first compound 0.0316 µM
[20] = second compound 1 µM, first compound 0.1 µM
[21] = second compound 1 µM, first compound 0.316 µM
[22] = second compound 1 µM, first compound 1 µM
[23] = second compound 1 µM, first compound 3.16 µM
[24] = second compound 1 µM, first compound 10 µM
[25] = second compound 3.16 µM, first compound 0.0316 µM
[26] = second compound 3.16 µM, first compound 0.1 µM
[27] = second compound 3.16 µM, first compound 0.316 µM
[28] = second compound 3.16 µM, first compound 1 µM
[29] = second compound 3.16 µM, first compound 3.16 µM
[30] = second compound 3.16 µM, first compound 10 µM
[31] = second compound 10 µM, first compound 0.0316 µM
[32] = second compound 10 µM, first compound 0.1 µM
[33] = second compound 10 µM, first compound 0.316 µM
[34] = second compound 10 µM, first compound 1 µM
[35] = second compound 10 µM, first compound 3.16 µM
[36] = second compound 10 µM, first compound 10 µM
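Also: spheroids exposed to the agents for seven days before readout.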
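For viability, T/C in this document: percent viability relative to DMSO vehicle control wells = 100%.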

With `COc1cccc2c1C(=O)c1c(O)c3c(c(O)c1C2=O)CC(O)(C(=O)CO)CC3OC1CC(N)C(O)C(C)O1` (stereo not drawn) + CN(C)c1ccc(Nc2c3ccc(NC(=O)CCN4CCCC4)cc3nc3cc(NC(=O)CCN4CCCC4)ccc23)cc1 the IC50 (second compound 0.0316 µM) was 4.26 µM, the IC50 (second compound 0.1 µM) was 5.65 µM and the IC50 (second compound 0.316 µM) was 5.03 µM. The IC50 (second compound 1 µM) was 4.9 µM, the IC50 (second compound 3.16 µM) was 5.46 µM and the IC50 (second compound 10 µM) was 6.44 µM. It also gave a viability, T/C [1] of 109%, a viability, T/C [2] of 103% and a viability, T/C [3] of 90.5%. It also gave a viability, T/C [4] of 72.5%, a viability, T/C [5] of 61.9% and a viability, T/C [6] of 28.8%. The viability, T/C [7] was 93.1%, the viability, T/C [8] was 106% and the viability, T/C [9] was 94.6%. It also gave a viability, T/C [10] of 79.8%, a viability, T/C [11] of 71% and a viability, T/C [12] of 31.5%. It also gave a viability, T/C [13] of 112%, a viability, T/C [14] of 110% and a viability, T/C [15] of 81%. It also gave a viability, T/C [16] of 87.1%, a viability, T/C [17] of 64.8% and a viability, T/C [18] of 30.7%. The viability, T/C [19] was 99.7%, the viability, T/C [20] was 96.3% and the viability, T/C [21] was 90.1%. For the same molecule, the viability, T/C [22] was 89.5%, the viability, T/C [23] was 63.4% and the viability, T/C [24] was 27.3%. It also gave a viability, T/C [25] of 109%, a viability, T/C [26] of 107% and a viability, T/C [27] of 83.7%. It also gave a viability, T/C [28] of 92.4%, a viability, T/C [29] of 72.4% and a viability, T/C [30] of 27.3%. For the same molecule, the viability, T/C [31] was 91.8%, the viability, T/C [32] was 110% and the viability, T/C [33] was 87.6%. For the same molecule, the viability, T/C [34] was 99.6%, the viability, T/C [35] was 75.9% and the viability, T/C [36] was 34%.
`CC1COCCN1c1cc(C2(S(C)(=N)=O)CC2)nc(-c2ccnc3[nH]ccc23)n1` (stereo not drawn) + Cc1[nH]c2ccc(F)cc2c1-c1nc2c3cccnc3c3ncccc3c2[nH]1 was tested, and the IC50 (second compound 0.0316 µM) was 2.91 µM, the IC50 (second compound 0.1 µM) was 5.58 µM and the IC50 (second compound 0.316 µM) was 4.71 µM. It also gave an IC50 (second compound 1 µM) of 4.53 µM, an IC50 (second compound 3.16 µM) of 3.17 µM and an IC50 (second compound 10 µM) of 2.46 µM. For the same molecule, the viability, T/C [1] was 105%, the viability, T/C [2] was 86.6% and the viability, T/C [3] was 110%. The viability, T/C [4] was 67.8%, the viability, T/C [5] was 53.6% and the viability, T/C [6] was 31.8%. The viability, T/C [7] was 85%, the viability, T/C [8] was 95.9% and the viability, T/C [9] was 100%. The viability, T/C [10] was 87.4%, the viability, T/C [11] was 64% and the viability, T/C [12] was 35.8%. It also gave a viability, T/C [13] of 78.7%, a viability, T/C [14] of 96.4% and a viability, T/C [15] of 114%. The viability, T/C [16] was 87.9%, the viability, T/C [17] was 64.2% and the viability, T/C [18] was 24%. It also gave a viability, T/C [19] of 91%, a viability, T/C [20] of 90.3% and a viability, T/C [21] of 96.1%. The viability, T/C [22] was 111%, the viability, T/C [23] was 59.4% and the viability, T/C [24] was 29.3%. For the same molecule, the viability, T/C [25] was 108%, the viability, T/C [26] was 99.2% and the viability, T/C [27] was 97.7%. It also gave a viability, T/C [28] of 97.1%, a viability, T/C [29] of 50% and a viability, T/C [30] of 18%. It also gave a viability, T/C [31] of 127%, a viability, T/C [32] of 83% and a viability, T/C [33] of 97.5%. It also gave a viability, T/C [34] of 92%, a viability, T/C [35] of 38.3% and a viability, T/C [36] of 14.1%.
Work on `Cc1cccc(N(C)C(=O)C2C(O)CCN2c2nc(C)cc(C(F)(F)F)c2C#N)c1` (stereo not drawn) + Cc1cnc(CNC(=O)c2c(=O)c3ccc(N4CCCN(C)CC4)nc3n3c2sc2ccccc23)cn1 yielded an IC50 (second compound 0.0316 µM) greater than 10 µM, an IC50 (second compound 0.1 µM) greater than 10 µM and an IC50 (second compound 0.316 µM) greater than 10 µM. For the same molecule, the IC50 (second compound 1 µM) was greater than 10 µM, the IC50 (second compound 3.16 µM) was greater than 10 µM and the IC50 (second compound 10 µM) was greater than 10 µM. For the same molecule, the viability, T/C [1] was 120%, the viability, T/C [2] was 115% and the viability, T/C [3] was 117%. For the same molecule, the viability, T/C [4] was 89.3%, the viability, T/C [5] was 87.6% and the viability, T/C [6] was 112%. For the same molecule, the viability, T/C [7] was 88.9%, the viability, T/C [8] was 112% and the viability, T/C [9] was 95.6%. For the same molecule, the viability, T/C [10] was 92.9%, the viability, T/C [11] was 120% and the viability, T/C [12] was 100%. The viability, T/C [13] was 94.3%, the viability, T/C [14] was 96.5% and the viability, T/C [15] was 93.2%. It also gave a viability, T/C [16] of 93.8%, a viability, T/C [17] of 107% and a viability, T/C [18] of 114%. For the same molecule, the viability, T/C [19] was 91.8%, the viability, T/C [20] was 94% and the viability, T/C [21] was 103%. The viability, T/C [22] was 85.9%, the viability, T/C [23] was 92.1% and the viability, T/C [24] was 83.5%. For the same molecule, the viability, T/C [25] was 71.9%, the viability, T/C [26] was 75.2% and the viability, T/C [27] was 95.3%. The viability, T/C [28] was 85.8%, the viability, T/C [29] was 86.5% and the viability, T/C [30] was 85.5%. For the same molecule, the viability, T/C [31] was 82%, the viability, T/C [32] was 71.9% and the viability, T/C [33] was 64.8%. The viability, T/C [34] was 84.4%, the viability, T/C [35] was 63.5% and the viability, T/C [36] was 52%.
With `C#Cc1c(F)ccc2cc(O)cc(-c3ncc4c(N5CC6CCC(C5)N6)nc(OCC56CCCN5CC(F)C6)nc4c3F)c12` (stereo not drawn) + CN(C)c1ccc(Nc2c3ccc(NC(=O)CCN4CCCC4)cc3nc3cc(NC(=O)CCN4CCCC4)ccc23)cc1 the IC50 (second compound 0.0316 µM) was greater than 10 µM, the IC50 (second compound 0.1 µM) was greater than 10 µM and the IC50 (second compound 0.316 µM) was greater than 10 µM. It also gave an IC50 (second compound 1 µM) greater than 10 µM, an IC50 (second compound 3.16 µM) greater than 10 µM and an IC50 (second compound 10 µM) greater than 10 µM. For the same molecule, the viability, T/C [1] was 85.8%, the viability, T/C [2] was 92.7% and the viability, T/C [3] was 101%. For the same molecule, the viability, T/C [4] was 105%, the viability, T/C [5] was 104% and the viability, T/C [6] was 78.9%. For the same molecule, the viability, T/C [7] was 114%, the viability, T/C [8] was 96.4% and the viability, T/C [9] was 94.8%. It also gave a viability, T/C [10] of 101%, a viability, T/C [11] of 85.2% and a viability, T/C [12] of 66%. The viability, T/C [13] was 113%, the viability, T/C [14] was 114% and the viability, T/C [15] was 82.2%. For the same molecule, the viability, T/C [16] was 79.3%, the viability, T/C [17] was 93.5% and the viability, T/C [18] was 77%. For the same molecule, the viability, T/C [19] was 85.4%, the viability, T/C [20] was 105% and the viability, T/C [21] was 76.7%. The viability, T/C [22] was 99.7%, the viability, T/C [23] was 89.2% and the viability, T/C [24] was 83.9%. For the same molecule, the viability, T/C [25] was 110%, the viability, T/C [26] was 123% and the viability, T/C [27] was 97.3%. For the same molecule, the viability, T/C [28] was 112%, the viability, T/C [29] was 73.6% and the viability, T/C [30] was 69.9%. The viability, T/C [31] was 100%, the viability, T/C [32] was 94.8% and the viability, T/C [33] was 101%. For the same molecule, the viability, T/C [34] was 87.8%, the viability, T/C [35] was 85.4% and the viability, T/C [36] was 72.5%.
